Values quoted from earlier work in patent US12533348B2, “Ferroportin-inhibitors for the use in the treatment of transfusion-dependent beta-thalassemia (TDT)” (Vifor (International) AG, priority 2019, dated 2026).

System: guinea pigs
Conditions: intravenous administration, cited from earlier work

Compound: O=C(NCc1ncccc1F)c1csc(CCNCc2nc3ccccc3[nH]2)n1 [VIT-2653]
- NTBI and Hb levels following exchange transfusion (guinea pigs): significantly improved
- total iron in kidneys following transfusion (guinea pigs): can be reduced
- occurrence of changes in plasma creatinine >0.3 mg/dL (indicator of early AKI) (transfused guinea pigs): significantly reduced
